Test results from US4647574A, “Hypoglycemic hydantoin derivatives” (Nippon Zoki Pharmaceutical Co., Ltd., priority 1984, dated 1987).

Assays:
[1] = system: Blood Glucose; assay: Hypoglycemic effect (modified method by Dulin et al.); format: in vivo, rat (Sprague-Dawley-strain male); details: 2 hours; for Blood Glucose Level: glucose-loaded fasted rats, control 134.6 ± 2.8
Method: Groups of 10 Sprague-Dawley-strain male rats (weighing about 250 g each) which had fasted for 18 hours were used for measurement of hypoglycemic effect according to the modified method by Dulin et al. (Dulin et al, Proc. Soc. Expl. Med., 107, 245 (1961)). That is, 0.5 ml/100 g of 20% aqueous solution of glucose was subcutaneously administered into the backs of rats to prevent a decrease in blood glucose level because of the fasting. […] The obtained blood sample was allowed to stand for 30 minutes to complete the coagulation and was centrifuged to obtain the serum. Blood sugar level was measured according to the mutalotase GOD method (Trinder, Ann. Clin. Biochem., vol. 6, p. 24 ([…])).

[2] = system: excreted sodium; assay: Diuretic effect: excreted sodium in rats (Lipschitz method); format: in vivo, rat (Long-Evans strain male); details: 20 mg/kg oral, within 1 day
Method: 20 mg/kg of the compound 1 of the present invention were orally administered to Long-Evans strain male rats (weighing about 130-150 g each), and the total amount of excreted sodium within 1 day was then measured according to the method by Lipschitz (JPFT, Vol. 79, p. 97 (1943)).

[3] = system: serum free fatty acid; assay: Hypolipidemic effect: serum free fatty acid; format: in vivo, rat (Wister strain male); details: 100 mg/kg oral, 2 hours, fasted rats; for Serum Fatty Acid Decrease: vs control; for Serum Fatty Acid Level: control 0.51 ± 0.44
Method: (§1) The test drugs were orally administered to groups of 6 Wisterstrain male rats (each weighing approximately 210-250 g) which had fasted for 20 hours. 2 hours later, the serum was obtained in the same manner as described in (2). Serum triglyceride was measured by GPO-p-chlorophenol colorimetric determination (Richard et al., Clinical Chemistry, vol. 24, p. 1343 (1978)) and serum free fatty acid was measured according to the Acyl CoA Synthetase-Acyl CoA Oxidase method (Shimizu, et al., Biochem. Biophys. Res. Commun., vol. 91, p. 108 (1979)).

[4] = system: Serum Triglyceride; assay: Hypolipidemic effect: serum triglyceride; format: in vivo, rat (Wister strain male); details: 100 mg/kg oral, 2 hours, fasted rats; for Serum Triglyceride Decrease: vs control; for Serum Triglyceride Level: control 33.5 ± 2.9
Method: as §1

[5] = system: sodium in urine; assay: Diuretic effect: sodium in urine in mice; format: in vivo, mouse; details: subcutaneous, up until 2 hours after the administration
[6] = system: urine sugar; assay: Urine sugar in glucose loaded rats; format: in vivo, rat; details: 200 mg/kg oral
Method: In addition, 200 mg/kg of the compound 1 of the present invention were orally administered to glucose loaded rats and the urine sugar was measured.

[7] = Rattus norvegicus, 50 mg/kg oral, vs control, read-out: Blood Glucose Decrease
[8] = Rattus norvegicus, 200 mg/kg oral, vs control, read-out: Blood Glucose Decrease

SMILES | Blood Glucose Level ([1]; 200 mg/kg oral) | inhibition in vivo at 200 mg/kg [1, 8] | Serum Fatty Acid Decrease [3] | Serum Fatty Acid Level [3] | Serum Triglyceride Decrease [4] | Serum Triglyceride Level [4] | further results
CCCCNC(=O)NS(=O)(=O)c1ccc(C)cc1 [Tolubutamide, reference compound] |  |  |  |  |  |  | Blood Glucose Level ([1]; 50 mg/kg oral): 63.4 ± 4.7 mg/dL; Blood Glucose Level ([1]; 100 mg/kg oral): 53.0 ± 4.5 mg/dL; inhibition in vivo at 50 mg/kg [1, 7]: 52.9%; inhibition in vivo at 100 mg/kg ([1]; Rattus norvegicus, 100 mg/kg oral, vs control, read-out: Blood Glucose Decrease): 60.6%
CN1C(=O)NC(=O)C1O (stereo not shown) [compound 1, 5-hydroxy-1-methylhydantoin] | 81.8 ± 4.0 mg/dL | 39.2% | 66% | 0.17 ± 0.01 mEq/dl | 68% | 10.7 ± 1.3 mg/dL | Blood Glucose Level ([1]; 25 mg/kg oral): 89.0 ± 4.1 mg/dL; Blood Glucose Level ([1]; 50 mg/kg oral): 87.1 ± 3.3 mg/dL; inhibition in vivo at 25 mg/kg ([1]; Rattus norvegicus, 25 mg/kg oral, vs control, read-out: Blood Glucose Decrease): 33.9%; inhibition in vivo at 50 mg/kg [1, 7]: 35.3%; total amount of excreted sodium, ratio to control group [2]: 1.8 times; increase in the amount of sodium in urine as compared with the control group [5]: 50.5%; urine sugar, difference between medicated and control groups [6]: No difference was found between the medicated and control groups
CN1C(=O)NC(O)C1=O (stereo not shown) [compound 2, 5-hydroxy-3-methylhydantoin] | 115.5 ± 3.9 mg/dL | 14.2% | 45% | 0.28 ± 0.04 mEq/dl | 59% | 13.8 ± 0.9 mg/dL | 
CCN1C(=O)NC(=O)C1O (stereo not shown) [compound 3, 5-hydroxy-1-ethylhydantoin] | 76.0 ± 3.8 mg/dL | 43.5% |  |  |  |  | 
CCCCN1C(=O)NC(=O)C1O (stereo not shown) [compound 4, 5-hydroxy-1-butylhydantoin] | 82.6 ± 3.6 mg/dL | 38.6% | 41% | 0.30 ± 0.01 mEq/dl | 54% | 15.3 ± 2.4 mg/dL | 
COC1C(=O)NC(=O)N1C (stereo not shown) [compound 5, 5-methoxy-1-methylhydantoin] | 109.4 ± 2.3 mg/dL | 18.7% |  |  |  |  | 
O=C1NC(=O)N(C2CCCC2)C1O (stereo not shown) [compound 15, 5-hydroxy-1-cyclopentylhydantoin] | 85.3 ± 5.9 mg/dL | 36.6% |  |  |  |  | 
O=C1NC(=O)N(C2CCCCC2)C1O (stereo not shown) [compound 16, 5-hydroxy-1-cyclohexylhydantoin] | 89.6 ± 2.7 mg/dL | 33.4% |  |  |  |  | 
CN1CC(=O)NC1=O [compound 23, 1methylhydantoin] | 106.9 ± 3.9 mg/dL | 20.6% | 43% | 0.29 ± 0.01 mEq/dl | 45% | 18.5 ± 1.8 mg/dL | 
